Results as given in patent US20220389058A1, “PEPTIDES AND COMPOSITIONS FOR USE IN COSMETICS AND MEDICINE” (LIPOTRUE, S.L., priority 2019, published 2022).
Entries after “also recorded” stand apart in the source; their conditions may differ.

Legend:
HDFa cells [1] = assay: Gene expression with Ac-SEQ ID NO: 4-NH2, RT-qPCR in HDFa (Example 17); type: cell-based, Human; settings: 0.01 mg/mL, 24 hours
Method: (§1) A stock solution of the peptide was prepared in water at 1 mg/mL. Working solution was freshly prepared at the specified concentration from stock solution in the corresponding supplemented medium.
(§2) RNA (ribonucleic acid) extraction and RT-qPCR (reverse transcription quantitative polymerase chain reaction) were performed. Briefly, HEKa or HDFa cells were seeded in duplicate (n=2) in 6-well plates at a density of 4×10^5 cells/well and maintained at standard culture conditions (106 Medium supplemented with 1% (v/v) LSGS for HDFa cells; Medium Epilife supplemented with 1% (v/v) EDGS and 1% (v/v) penicillin/streptomycin for HEKa cells; 37° C., 95% room humidity, 5% CO2) for 24 hours.
(§3) Then, cells were treated with peptide Ac-SEQ ID NO: 4-NH2 at the concentration of 0.01 mg/mL for 24 hours. Untreated cells were used as basal or negative control.
(§4) Cells were finally lysed, and replicates were pooled together for RNA extraction using Qiagen RNeasy Mini kit following manufacturer's instructions. Purified RNAs were used to generate the corresponding cDNAs (complementary deoxyribonucleic acids) by reverse transcription using a commercial kit High capacity cDNA reverse transcription kit (Applied Biosystems) which served as templates for amplification. RT-qPCR was performed with the panel of appropriate TaqMan assay probes for genes shown in table 10 (plus GAPDH—Glyceraldehyde 3-phosphate dehydrogenase—that was used as housekeeping gene) and 2×gene expression Master Mix using StepOne plus Real-Time PCR instrument. Amplification included 40 cycles of: 15 seconds at 95° C. […] (Annealing and extension) (Arya, M., Shergill, I. S., Williamson, M., Gommersall, L., Arya, N., Patel, H. R. (2005) Basic principles of real-time quantitative PCR. Expert Rev. Mol. Diagn.; 5(2):209-19; and Jozefczuk, J. and Adjaye, J. (2011) Quantitative real-time PCR-based analysis of gene expression. Methods Enzymol. 500; 99-109).
(§5) The obtained data was analysed using the ΔΔCt method, which provides the target gene expression values as fold changes in the treated sample compared with an untreated basal sample. […]

HEKa cells [2] = assay: Gene expression with Ac-SEQ ID NO: 4-NH2, RT-qPCR in HEKa (Example 17); type: cell-based, Human; settings: 0.01 mg/mL, 24 hours
Method: as §1, §2, §3
(§6) Cells were finally lysed, and replicates were pooled together for RNA extraction using Qiagen RNeasy Mini kit following manufacturer's instructions. Purified RNAs were used to generate the corresponding cDNAs (complementary deoxyribonucleic acids) by reverse transcription using a commercial kit High capacity cDNA reverse transcription kit (Applied Biosystems) which served as templates for amplification. RT-qPCR was performed with the panel of appropriate TaqMan assay probes for genes shown in table 10 (plus GAPDH—Glyceraldehyde 3-phosphate dehydrogenase—that was used as housekeeping gene) and 2×gene expression Master Mix using StepOne plus Real-Time PCR instrument. Amplification included 40 cycles of: 15 seconds at 95° C. (denaturation) and 1 minute at 60° C. (Annealing and extension) (Arya, M., Shergill, I. S., Williamson, M., Gommersall, L., Arya, N., Patel, H. R. (2005) Basic principles of real-time quantitative PCR. Expert Rev. Mol. Diagn.; 5(2):209-19; and Jozefczuk, J. and Adjaye, J. (2011) Quantitative real-time PCR-based analysis of gene expression. Methods Enzymol. 500; 99-109).
(§7) The obtained data was analysed using the ΔΔCt method, which provides the target gene expression values as fold changes in the treated sample compared with an untreated basal sample. Both samples were normalized with the relative expression of a housekeeping gene GAPDH (Glyceraldehyde 3-phosphate dehydrogenase).

[3] = tested on: recombinant mushroom tyrosinase; assay: Tyrosinase activity, L-DOPA/dopachrome absorbance (Example 11); type: biochemical; settings: 0.05-2.5 mg/mL (Ac-SEQ ID NO: 4-NH2: 0.005-2.5 mg/mL); 30 minutes preincubation, L-DOPA, 2 hours, absorbance 450 nm; vs non-treated control (100%)
Method: Briefly, different concentrations of Ac-SEQ ID NO: 1-NH2 (0.05, 0.25, 0.5 and 2.5 mg/mL), Ac-SEQ ID NO: 2-NH2 (0.05, 0.25, 0.5 and 2.5 mg/mL), Ac-SEQ ID NO: 3-NH2 (0.05, 0.25, 0.5 and 2.5 mg/mL) and Ac-SEQ ID NO: 4-NH2 (0.005, 0.025, 0.05, 0.25, 0.5 and 2.5 mg/mL) and the positive control kojic acid (400 and 800 μM) were incubated with recombinant mushroom tyrosinase for 30 minutes before the addition of L-DOPA (L-3,4 dihidroxiphenilalanine, 2.5 mg/mL in PBS). After 2 hours' reaction at room temperature, the absorbance at 450 nm of each well was determined using the microplate reader Multiskan FC (Thermo Fisher Scientific, Mass., USA), which is directly proportional to the amount of dopachrome in the reaction mixture.

IL33 = IL33 expression modulation by RT-qPCR in HEKa cells (Example 7); type: cell-based, Human; settings: 0.01 mg/mL, 24 hours
Method: as §1
as §2, with “Briefly, HDFa and” for “Briefly,”, “HEKa” for “HEKa or HDFa”, “hours. Then, cells were treated with peptide Ac-SEQ ID NO: 1-NH2, Ac-SEQ ID NO: 2-NH2 or Ac-SEQ ID NO: 3-NH2 at the concentration of 0.01 mg/mL for 24 hours. Untreated cells were used as basal or negative control.” for “hours.”
as §4, with “the” for “the panel of”, “IL33” for “genes shown in table 10”, “instrument.” for “instrument. Amplification included 40 cycles of: 15 seconds at 95° C.”
as §5

HDFa cells [4] = assay: Expression of genes related with collagen production and extracellular matrix, RT-qPCR in HDFa (Example 10); type: cell-based, Human; settings: 0.01 mg/mL, 24 hours
Method: as §1
RNA (ribonucleic acid) extraction and RT-qPCR (reverse transcription quantitative polymerase chain reaction) were performed. Briefly, HDFa cells were seeded in duplicate (n=2) in 6-well plates at a density of 4×10^5 cells/well and maintained at standard culture conditions (106 Medium supplemented with 1% (v/v) LSGS; 37° C., 95% room humidity, 5% CO2) for 24 hours. Then, cells were treated with peptide Ac-SEQ ID NO: 1-NH2 at the concentration of 0.01 mg/mL for 24 and 48 hours. Untreated cells were used as basal or negative control.
as §6, with “table 5” for “table 10”
as §7

HEKa cells [5] = assay: Expression of genes related to epidermal cell cohesion, RT-qPCR in HEKa (Example 9); type: cell-based, Human; settings: 0.01 mg/mL, 24 hours
Method: as §1
as §2, with “HEKa” for “HEKa or HDFa”, “(Medium” for “(106 Medium supplemented with 1% (v/v) LSGS for HDFa cells; Medium”, “penicillin/streptomycin;” for “penicillin/streptomycin for HEKa cells;”
Then, cells were treated with peptide Ac-SEQ ID NO: 1-NH2, Ac-SEQ ID NO: 2-NH2 or Ac-SEQ ID NO: 3-NH2 at the concentration of 0.01 mg/mL for 24 hours. Untreated cells were used as basal or negative control.
as §6, with “table 1” for “table 10”
as §7

Substance | tyrosinase activity [3] | IL33 gene expression, fold change in treated cells with regard to basal control (IL33) | FBN1 Fold change between treated cells and basal control (HDFa cells [4]) | MMP1 Fold change between treated cells and basal control (HDFa cells [4]) | CLDN4 Fold change between treated cells and basal control (HEKa cells [5]) | OCLN Fold change between treated cells and basal control (HEKa cells [5]) | PCDH1 Fold change between treated cells and basal control (HEKa cells [5]) | PKP2 Fold change between treated cells and basal control (HEKa cells [5]) | TJP1 Fold change between treated cells and basal control (HEKa cells [5]) | further results
Ac-Arg-Arg-Gln-Met-Glu-Glu-NH2 (Ac-RRQMEE-NH2) [Ac-SEQ ID NO: 4-NH2, a peptide not of the present invention, very similar comparison peptide] | did not inhibit tyrosinase activity in any of the concentrations tested; also recorded: from concentration 0.05 mg/mL and onwards it increased tyrosinase activity in a dose-dependent manner | – | – | – | – | – | – | – | – | COL3A1 Fold change between treated cells and basal control (HDFa cells [1]): −1.28 Fold change; IL1RL1 Fold change between treated cells and basal control (HDFa cells [1]): −1.12 Fold change; TIMP2 Fold change between treated cells and basal control (HDFa cells [1]): −1.26 Fold change; CDSN Fold change between treated cells and basal control (HEKa cells [2]): −1.04 Fold change; IL33 Fold change between treated cells and basal control (HEKa cells [2]): −1.01 Fold change; OCLN Fold change between treated cells and basal control (HEKa cells [2]): −1.08 Fold change; SIGIRR Fold change between treated cells and basal control (HEKa cells [2]): −1.49 Fold change; SLC2A1 Fold change between treated cells and basal control (HEKa cells [2]): −1.07 Fold change; TJP1 Fold change between treated cells and basal control (HEKa cells [2]): −1.04 Fold change
Ac-Arg-Glu-Gln-Met-Arg-Arg-NH2 (Ac-REQMRR-NH2) [Ac-SEQ ID NO: 3-NH2] | showed a dose-dependent inhibition of tyrosinase activity at concentrations of 0.25 mg/mL and higher | −3.93 fold change | 1.29 Fold change | −1.46 Fold change | 1.90 Fold change | 1.99 Fold change | 2.48 Fold change | 1.86 Fold change | 1.43 Fold change | MMP3 Fold change between treated cells and basal control (HDFa cells [4]): −1.30 Fold change; CLDN1 Fold change between treated cells and basal control (HEKa cells [5]): 1.5 Fold change; DSC1 Fold change between treated cells and basal control (HEKa cells [5]): 1.41 Fold change; DSC2 Fold change between treated cells and basal control (HEKa cells [5]): 1.43 Fold change; DSP Fold change between treated cells and basal control (HEKa cells [5]): 1.28 Fold change; JUP Fold change between treated cells and basal control (HEKa cells [5]): 1.23 Fold change; PPL Fold change between treated cells and basal control (HEKa cells [5]): 1.52 Fold change
Ac-Met-Arg-Arg-Glu-Gln-Arg-NH2 (Ac-MRREQR-NH2) [Ac-SEQ ID NO: 2-NH2] | showed inhibition of tyrosinase activity in a dose-dependent manner from 0.05 mg/mL and onwards | −3.77 fold change | 1.20 Fold change | −1.21 Fold change | 1.51 Fold change | 1.58 Fold change | 2.14 Fold change | 1.42 Fold change | 1.34 Fold change | –
